According to EP0384594A1, “Anti-inflammatory aryl derivatives” (THE WELLCOME FOUNDATION LIMITED, priority 1989, dated 1990):
Read-outs that look alike come from different tables or passages of the source.

Columns and labels:
[1] = tested on: Male New Zealand White rabbits; test: Combination effects with an NSAID: antigen (ovalbumin)-induced arthritis of the knee joint in rabbits; assay type: in vivo; details: for proteoglycan loss from the cartilage, result in words / PROTEOGLYCAN LOSS: 14 days after antigen challenge; for mean leukocyte infiltrate in the synovial fluid, result in words / LEUKOCYTES (CELL NUMBER x 10⁶): 14 days after challenge; for PROTEOGLYCAN LOSS: articular cartilage of arthritic joint versus contralateral joint; for JOINT SWELLING: oral x3/24h: compound A 2mg/kg, indomethacin 1mg/kg; for reduced swelling compared to the vehicle-treated controls: from day 3 onwards, maximum reduction; for Lymphocytes / Total cells: histological evaluation of synovial lining; for LEUKOCYTES (CELL NUMBER x 10⁶): synovial fluid of arthritic joint
Method: Male New Zealand White rabbits (2.5 - 3kg) were immunised with intradermal injections of 4mg of ovalbumin in 1ml of Freund's complete adjuvant. Animals were reimmunised 14 days later in the same way. Five days after the second immunisation, arthritis was induced in the right knee joint by injecting 1ml of a sterile solution of ovalbumin (5mg/ml) into the joint cavity. Joint diameters were measured (on a randomised blind basis) with calipers at frequent intervals after antigen challenge. Animals were killed after 14 days and the joint space was washed with 1ml of saline and the resultant fluid was taken for total and differential leukocyte counts. Sensitised animals were randomly allocated to groups of 5-8. The compound of Synthetic Example 1, (E)-N-{1-Methyl-3-[3-(4-fluorophenoxy)phenyl]prop-2-en-1-yl}-N-hydroxyurea (compound A), was administered in suspension following 18h ball-milling in 0.25% Celacol as vehicle. The non-steroidal anti-inflammatory indomethacin was dissolved in a small volume of 1M Tris buffer pH8 and then made up to volume with 0.25% Celacol. Control animals received 0.25% Celacol. Each animal received an oral dose (approximately 5ml) of vehicle or drug 3 times every 24h. Doses were administered at 8.0am, 4.0pm and 12 midnight for 16-17 days commencing 1h before antigen challenge on day 0. All doses were given orally by stomach tube. The groups were as follows: 1-7: Controls (5ml 0.25% Celacol x3/24h) 8-14: 1mg/kg indomethacin dissolved in 0.25% Celacol x3/24h 15-21: 2mg/kg compound A suspended in 0.25% Celacol x3/24h 22-28: 2mg/kg compound A suspended in 0.25% Celacol plus 1mg/kg indomethacin dissolved in 0.25% Celacol Synovial lining tissue was removed from the joint, fixed, processed, cut and stained for microscopic examination. Histological scores were derived for the total mass of inflamed synovial lining, lymphocyte infiltration and polymorph content. The slides were read on a randomised blind basis. Articular cartilage was dissected from the ends of the femurs and digested with papain prior to measurement of the concentration of sulphated glycosaminoglycans (GAGs). The proteoglycan content was expressed as µg GAG/mg wet weight of cartilage and compared with values obtained with cartilage from the contralateral control joint.

5-lipoxygenase [2] = test: Ex vivo inhibition of 5-lipoxygenase (stimulated LTB4 synthesis in blood after dosing), rabbits; details: for inhibition of the stimulated ex vivo synthesis of leukotriene B₄ (LTB₄), result in words: rabbits, preliminary studies
Method: After administration of the test compound, the concentration of LTB₄ in the plasma was measured periodically and expressed as a percentage of the mean control value. The procedure used is described in Br. J. Pharmacol. 94, 528 (1988) and may be summarised as follows. Within 2 minutes of collection, duplicate samples (0.5ml) of blood were stimulated with the calcium ionophore A23187 (final concentration 15µg/ml) for 30 minutes at 37 °C. When incubation was complete, the samples were centrifuged (12,000G for 2 minutes) and the cell-free plasma removed. The plasma concentration of LTB₄ was then determined by specific radioimmunoassay. The compounds of Synthetic Examples 1 to 3 all inhibited the stimulated ex vivo synthesis of LTB₄ for several hours after their administration. The compound of Synthetic Example 1, for example, when administered orally to rabbits at a dose of 2mg/kg inhibited LTB₄ synthesis by more than 50% for a period of greater than 16 hours. The same compound when administered orally to rats at a dose of 10mg/kg inhibited LTB₄ synthesis by more than 50% for longer than 10 hours.

5-lipoxygenase [3] = biological target: T1, 5-lipoxygenase (Homo sapiens, UniProt P09917); test: In vitro inhibition of 5-lipoxygenase, ionophore-stimulated whole human blood; assay type: cell-based; details: read-out: IC₅₀ Whole blood
T1 construct: The experiment was repeated using ionophore-stimulated whole human blood; endogenous in cells; host or cells: whole human blood (blood leukocytes)
T1 sequence (P09917 1-674): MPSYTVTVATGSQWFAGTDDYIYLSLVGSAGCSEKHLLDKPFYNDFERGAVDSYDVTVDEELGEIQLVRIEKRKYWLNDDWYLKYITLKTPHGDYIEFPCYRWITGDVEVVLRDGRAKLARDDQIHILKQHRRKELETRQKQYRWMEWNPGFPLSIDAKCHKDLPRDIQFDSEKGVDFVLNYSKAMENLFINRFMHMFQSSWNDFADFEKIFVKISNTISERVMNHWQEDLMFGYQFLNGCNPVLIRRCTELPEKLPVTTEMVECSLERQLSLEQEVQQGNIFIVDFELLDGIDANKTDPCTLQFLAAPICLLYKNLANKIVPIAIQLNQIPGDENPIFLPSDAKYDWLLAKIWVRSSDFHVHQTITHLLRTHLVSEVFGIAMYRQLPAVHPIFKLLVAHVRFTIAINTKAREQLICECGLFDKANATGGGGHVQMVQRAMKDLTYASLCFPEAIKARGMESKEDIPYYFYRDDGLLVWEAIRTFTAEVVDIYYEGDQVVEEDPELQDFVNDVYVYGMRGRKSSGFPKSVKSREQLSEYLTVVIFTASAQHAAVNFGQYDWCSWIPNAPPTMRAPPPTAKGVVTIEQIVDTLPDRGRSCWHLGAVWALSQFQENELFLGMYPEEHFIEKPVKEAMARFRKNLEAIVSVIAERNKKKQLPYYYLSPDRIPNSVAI
Method: Blood from normal aspirin-free volunteers was centrifuged to separate leukocytes from red cells and platelets. A solution of the test compound in DMSO (10µl, final concentration in the range 0.01 - 100µM) was added to cell homogenate (470µl) and the mixture incubated at 37 °C for 5 minutes. Solutions of arachidonic acid in methanol (250µM, 10µl, final concentration 5µM) and calcium chloride in water (100mM, 10µl, final concentration 2mM) were then added simultaneously and the mixture incubated at 37 °C for a further 5 minutes. The reaction was stopped by boiling. Radioimmunoassay was conducted for leukotriene B₄.
The experiment was repeated using ionophore-stimulated whole human blood.

5-lipoxygenase [4] = biological target: T2, 5-lipoxygenase (Rattus norvegicus, UniProt P12527); test: Ex vivo inhibition of 5-lipoxygenase (stimulated LTB4 synthesis in blood after dosing), rats; details: po, administered orally to rats, ex vivo A23187-stimulated blood, read-out: inhibited LTB₄ synthesis
T2 construct: endogenous in cells; host or cells: whole blood of dosed rats (blood leukocytes)
T2 sequence (P12527 1-673): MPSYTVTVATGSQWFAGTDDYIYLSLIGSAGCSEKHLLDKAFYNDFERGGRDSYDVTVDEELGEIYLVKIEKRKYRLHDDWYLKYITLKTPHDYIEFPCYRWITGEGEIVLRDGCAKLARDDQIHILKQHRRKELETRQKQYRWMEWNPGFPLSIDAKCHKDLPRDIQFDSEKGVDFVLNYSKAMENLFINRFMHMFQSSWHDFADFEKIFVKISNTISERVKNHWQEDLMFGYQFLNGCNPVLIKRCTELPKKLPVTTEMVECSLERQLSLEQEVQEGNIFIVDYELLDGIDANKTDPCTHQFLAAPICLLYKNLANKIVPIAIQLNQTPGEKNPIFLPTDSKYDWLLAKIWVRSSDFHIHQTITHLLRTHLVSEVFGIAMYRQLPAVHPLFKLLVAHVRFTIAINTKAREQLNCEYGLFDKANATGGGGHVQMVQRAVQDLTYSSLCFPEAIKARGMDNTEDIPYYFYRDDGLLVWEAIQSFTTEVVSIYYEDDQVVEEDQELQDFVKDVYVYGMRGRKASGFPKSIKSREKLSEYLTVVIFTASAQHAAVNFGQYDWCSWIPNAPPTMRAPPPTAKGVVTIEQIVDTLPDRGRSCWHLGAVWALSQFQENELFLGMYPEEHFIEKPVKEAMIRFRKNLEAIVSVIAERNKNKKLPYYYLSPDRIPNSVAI
Method: After administration of the test compound, the concentration of LTB₄ in the plasma was measured periodically and expressed as a percentage of the mean control value. The procedure used is described in Br. J. Pharmacol. 94, 528 (1988) and may be summarised as follows.
Within 2 minutes of collection, duplicate samples (0.5ml) of blood were stimulated with the calcium ionophore A23187 (final concentration 15µg/ml) for 30 minutes at 37 °C. When incubation was complete, the samples were centrifuged (12,000G for 2 minutes) and the cell-free plasma removed. The plasma concentration of LTB₄ was then determined by specific radioimmunoassay.
The compounds of Synthetic Examples 1 to 3 all inhibited the stimulated ex vivo synthesis of LTB₄ for several hours after their administration. The compound of Synthetic Example 1, for example, when administered orally to rabbits at a dose of 2mg/kg inhibited LTB₄ synthesis by more than 50% for a period of greater than 16 hours. The same compound when administered orally to rats at a dose of 10mg/kg inhibited LTB₄ synthesis by more than 50% for longer than 10 hours.

[5] = Anti-oxidant activity: peroxyl radical scavenging, inhibition of peroxidation of linoleic acid
Method: As a measure of anti-oxidant activity, the peroxyl radical scavenging abilities of the compounds of the invention were determined by testing each compound's ability to inhibit the peroxidation of linoleic acid using the method described in Biochem. Pharm. 38, 1465 (1989).

mice = assay type: in vivo
Method: The compound of Synthetic Example 1 was administered to mice per orally at doses of up to 300mg/kg and intraperitoneally at doses of up to 100mg/kg.

[6] = duration of arthritis 14 (days)

Compound	proteoglycan loss from the cartilage, result in words [1]	mean leukocyte infiltrate in the synovial fluid, result in words [1]	PROTEOGLYCAN LOSS [1] [%]	JOINT SWELLING ([1]; duration of arthritis 1 (day)) [MM]	JOINT SWELLING ([1]; duration of arthritis 2 (days)) [MM]	JOINT SWELLING ([1]; duration of arthritis 3 (days)) [MM]	JOINT SWELLING ([1]; duration of arthritis 8 (days)) [MM]	JOINT SWELLING [1, 6] [MM]	reduced swelling compared to the vehicle-treated controls [1]	Lymphocytes [1]	Total cells [1]	LEUKOCYTES (CELL NUMBER x 10⁶) [1] [x 10⁶]	inhibition of the stimulated ex vivo synthesis of leukotriene B₄ (LTB₄), result in words (5-lipoxygenase [2])	IC50 (5-lipoxygenase [3]) [µM]	period for which LTB₄ synthesis was inhibited by more than 50% (5-lipoxygenase [2]; administered orally to rabbits, 2mg/kg)	inhibited LTB₄ synthesis (5-lipoxygenase [2]; administered orally to rabbits, 2mg/kg, ex vivo A23187-stimulated blood)	inhibition at 10 mg/kg (5-lipoxygenase [4]) [%]	apparent rate constant (kAH) for scavenging peroxyl radicals [5]	deaths or serious deleterious effects (mice; intraperitoneally, doses of up to 100mg/kg)	deaths or serious deleterious effects (mice; per orally, doses of up to 300mg/kg)
COc1ccc2c(c1)c(CC(=O)O)c(C)n2C(=O)c1ccc(Cl)cc1 [Indomethacin, indomethacin, reference compound]	reduced proteoglycan loss	slightly reduced	38	4.3	4.5	3.5	2.6	2.0	up to 53%	51	365	7.3	–	–	–	–	–	–	–	–
C[C@@H](/C=C/c1cccc(Oc2ccc(F)cc2)c1)N(O)C(N)=O [Synthetic Example 3, (E)-N-{3-[3-(4-fluorophenoxy)phenyl]-1(S)-methylprop-2-en-1-yl}-N-hydroxyurea]	–	–	–	–	–	–	–	–	–	–	–	–	effectively inhibited	0.08	–	–	–	–	–	–
CC(/C=C/c1cccc(Oc2ccc(F)cc2)c1)N(O)C(N)=O (racemic) [Synthetic Example 1, (E)-N-{3-[3-(4-fluorophenoxy)phenyl]-1(R,S)-methylprop-2-en-1-yl}-N-hydroxyurea]	reduced proteoglycan loss	slightly reduced	34	4.6	5.2	4.6	3.5	3.2	up to 26%	59	367	6.1	effectively inhibited	0.15	greater than 16 hours	more than 50%	> 50	0.408	No deaths or serious deleterious effects	No deaths or serious deleterious effects
C[C@H](/C=C/c1cccc(Oc2ccc(F)cc2)c1)N(O)C(N)=O [Synthetic Example 2, (E)-N-{3-[3-(4-fluorophenoxy)phenyl]-1(R)-methylprop-2-en-1-yl}-N-hydroxyurea]	–	–	–	–	–	–	–	–	–	–	–	–	effectively inhibited	0.08	–	–	–	–	–	–
